As usually defined, the MIC is the lowest concentration that inhibits growth of the organism.

Values after ≈ are worked out from the molar mass of the structure shown.

Type in all cases: functional
Test [1] has as its system Mycobacterium tuberculosis. The test can be described thus: Antimycobacterial activity against Streptomycin-resistant Mycobacterium tuberculosis ATCC 35820 assessed as inhibition of bacterial cell growth incubated for 7 days by resazurin microtiter assay. The note with it: ATCC 35820, 168 h. A general note: Alamar Blue is a resazurin reagent that responds to reducing activity.

Test [2] relates to Mycobacterium tuberculosis. Briefly: Antimycobacterial activity against Isoniazid-resistant Mycobacterium tuberculosis ATCC 35822 assessed as inhibition of bacterial cell growth incubated for 7 days by resazurin microtiter assay. Particulars: ATCC 35822, 168 h.
The subject of test [3] is Mycobacterium tuberculosis. Briefly: Antimycobacterial activity against Rifampicin-resistant Mycobacterium tuberculosis ATCC 35838 assessed as inhibition of bacterial cell growth incubated for 7 days by resazurin microtiter assay. The note with it: ATCC 35838, 168 h.
For test [4], the system named is Mycobacterium tuberculosis. Briefly: Antimycobacterial activity against Pyrazinamide-resistant Mycobacterium tuberculosis ATCC 35828 assessed as inhibition of bacterial cell growth incubated for 7 days by resazurin microtiter assay. Particulars: ATCC 35828, 168 h.

Regarding `COC(=O)/C=C1\Nc2ccccc2OC1=O`, the MIC is 4.5 µM (≈ 0.986 µg/mL) in test [1], > 146 µM in test [2], 9.1 µM (≈ 1.99 µg/mL) in test [3] and 4.5 µM (≈ 0.986 µg/mL) in test [4].

Turning to `COC(=O)/C=C1\Nc2cc(Cl)ccc2OC1=O`, the MIC in test [1] was 63 µM (≈ 16 µg/mL); in test [2], > 126 µM; in test [3], 63 µM (≈ 16 µg/mL); in test [4] it was 31 µM (≈ 7.86 µg/mL).

Turning to `COC(=O)/C=C1\Nc2ccc(Cl)cc2OC1=O`, the MIC in test [1] is 3.9 µM (≈ 0.989 µg/mL); in test [2], > 126 µM; in test [3], 3.9 µM (≈ 0.989 µg/mL); in test [4], 3.9 µM (≈ 0.989 µg/mL).

On to `O=C1Oc2ccccc2N/C1=C\C(=O)c1c[nH]c2ccccc12`, for which the MIC in test [1] was 3.3 µM (≈ 1 µg/mL); in test [2] it was > 105 µM; in test [3], 3.3 µM (≈ 1 µg/mL); in test [4], 3.3 µM (≈ 1 µg/mL).

Consider `O=C1Oc2ccccc2N/C1=C\C(=O)c1cccs1`, for which the MIC was found to be 14.7 µM (≈ 3.99 µg/mL) in test [1], 118 µM (≈ 32 µg/mL) in test [2], 14.7 µM (≈ 3.99 µg/mL) in test [3] and 14.7 µM (≈ 3.99 µg/mL) in test [4].

Turning to `O=C1Oc2ccccc2N/C1=C\C(=O)N1CCOCC1`, the MIC in test [1] is 7.3 µM (≈ 2 µg/mL); in test [2] it was > 117 µM; in test [3], 7.3 µM (≈ 2 µg/mL); in test [4] it was 3.6 µM (≈ 0.987 µg/mL).

Turning to `O=C(NNC(=O)c1ccncc1)C(=O)Nc1ccccc1O`, the MIC in test [1] is 26.7 µM (≈ 8.02 µg/mL); in test [2], > 106 µM; in test [3] it was 3.3 µM (≈ 0.991 µg/mL); in test [4] it was 6.7 µM (≈ 2.01 µg/mL).

In the case of `O=C(NNC(=O)c1ccncc1)C(=O)Nc1ccc(Cl)cc1O`, the MIC in test [1] was 24 µM (≈ 8.03 µg/mL); in test [2] it was > 96 µM; in test [3] it was 12 µM (≈ 4.02 µg/mL); in test [4] it was 12 µM (≈ 4.02 µg/mL).

Turning to `O=C(NNC(=O)c1ccncc1)C(=O)Nc1cc(Cl)ccc1O`, the MIC in test [1] was 24 µM (≈ 8.03 µg/mL); in test [2] it was > 96 µM; in test [3] it was 12 µM (≈ 4.02 µg/mL); in test [4], 12 µM (≈ 4.02 µg/mL).

`NNC(=O)c1ccncc1` [ISONIAZID]: the MIC is 1.8 µM (≈ 0.247 µg/mL) in test [1], > 233 µM in test [2], 1.8 µM (≈ 0.247 µg/mL) in test [3] and 1.8 µM (≈ 0.247 µg/mL) in test [4].

The values are drawn from ChEMBL document CHEMBL4433266, “Design, synthesis and antimycobacterial activity of benzoxazinone derivatives and open-ring analogues: Preliminary data and computational analysis” (Bioorg Med Chem Lett, 2019).
